According to patent US11254663B2 (BRISTOL-MYERS SQUIBB COMPANY, priority 2019, dated 2022):

Target: FXR (Homo sapiens (Human), UniProt Q96RI1)
Assay: FXR EC50 (FXR agonist potency reported with each Example)
Assay type: cell-based

FXR, sequence (Q96RI1 262-486): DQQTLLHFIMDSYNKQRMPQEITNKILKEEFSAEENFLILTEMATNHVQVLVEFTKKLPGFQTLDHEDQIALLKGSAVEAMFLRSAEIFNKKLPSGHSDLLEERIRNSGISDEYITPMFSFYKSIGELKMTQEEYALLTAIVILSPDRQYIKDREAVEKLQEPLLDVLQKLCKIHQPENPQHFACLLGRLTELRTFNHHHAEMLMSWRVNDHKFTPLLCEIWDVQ

SMILES | EC50
O=C(C1CC(C(F)F)C1)N(CC12CCC(c3nc(C4CC4)no3)(CC1)CC2)c1cccc(-c2cc(C3CC3)on2)c1 (stereo not shown) [Example 58, N-((4-(3-cyclopropyl-1,2,4-oxadiazol-5-yl)bicyclo[2.2.2]octan-1-yl)methyl)-N-(3-(5-cyclopropylisoxazol-3-yl)phenyl)-3-(difluoromethyl)cyclobutane-1-carboxamide] | 0.039 µM
CCc1noc(-c2cccc(N(CC34CCC(c5nc(C6CC6)no5)(CC3)CC4)C(=O)C3CC(C(F)F)C3)c2)n1 (stereo not shown) [Example 4, N-((4-(3-cyclopropyl-1,2,4-oxadiazol-5-yl)bicyclo[2.2.2]octan-1-yl)methyl)-3-(difluoromethyl)-N-(3-(3-ethyl-1,2,4-oxadiazol-5-yl)phenyl)cyclobutane-1-carboxamide] | 0.322 µM
O=C(N(CC12CCC(c3nc(C4CC4)cs3)(CC1)CC2)c1cccc(-c2nc(C3CC3)no2)c1)C12CC(F)(C1)C2 [Example 100, N-(3-(3-cyclopropyl-1,2,4-oxadiazol-5-yl)phenyl)-N-((4-(4-cyclopropylthiazol-2-yl)bicyclo[2.2.2]octan-1-yl)methyl)-3-fluorobicyclo[1.1.1]pentane-1-carboxamide] | 0.164 µM
O=C(N(CC12CCC(c3nc(C4CC4)no3)(CC1)CC2)c1cccc(-c2noc(C3CC3)n2)c1)C12CC(F)(C1)C2 [Example 104, N-(3-(5-cyclopropyl-1,2,4-oxadiazol-3-yl)phenyl)-N-((4-(3-cyclopropyl-1,2,4-oxadiazol-5-yl)bicyclo[2.2.2]octan-1-yl)methyl)-3-fluorobicyclo[1.1.1]pentane-1-carboxamide] | 0.06 µM
Cc1cnc(C23CCC(CN(C(=O)C45CC(F)(C4)C5)c4cccc(-c5nc(C6CC6)no5)c4)(CC2)CC3)o1 [Example 37, N-(3-(3-cyclopropyl-1,2,4-oxadiazol-5-yl)phenyl)-3-fluoro-N-((4-(5-methyloxazol-2-yl)bicyclo[2.2.2]octan-1-yl)methyl)bicyclo[1.1.1]pentane-1-carboxamide] | 0.082 µM
Cn1nc(C23CCC(CN(C(=O)C45CC(F)(C4)C5)c4cccc(-c5nc(C6CC6)no5)c4)(CC2)CC3)cc1C1CC1 [Example 124, N-(3-(3-cyclopropyl-1,2,4-oxadiazol-5-yl)phenyl)-N-((4-(5-cyclopropyl-1-methyl-1H-pyrazol-3-yl)bicyclo[2.2.2]octan-1-yl)methyl)-3-fluorobicyclo[1.1.1]pentane-1-carboxamide] | 0.089 µM
O=C(C1CC(C(F)F)C1)N(CC12CCC(c3nc(C4CC4)no3)(CC1)OC2)c1cccc(-c2nc(C3CC3)no2)c1 (stereo not shown) [Example 198, N-((1-(3-cyclopropyl-1,2,4-oxadiazol-5-yl)-2-oxabicyclo[2.2.2]octan-4-yl)methyl)-N-(3-(3-cyclopropyl-1,2,4-oxadiazol-5-yl)phenyl)-3-(difluoromethyl)cyclobutane-1-carboxamide] | 0.909 µM
CCCc1ncc(-c2cccc(N(CC34CCC(c5nc(C6CC6)no5)(CC3)CC4)C(=O)C3CC(C(F)F)C3)c2)o1 (stereo not shown) [Example 28, N-((4-(3-cyclopropyl-1,2,4-oxadiazol-5-yl)bicyclo[2.2.2]octan-1-yl)methyl)-3-(difluoromethyl)-N-(3-(2-propyloxazol-5-yl)phenyl)cyclobutane-1-carboxamide] | 0.248 µM
O=C(N(CC12CCC(c3nc(C4CC4)no3)(CC1)CC2)c1cccc(-c2cnn(S(=O)(=O)C3CC3)c2)c1)C12CC(F)(C1)C2 [Example 158, N-((4-(3-cyclopropyl-1,2,4-oxadiazol-5-yl)bicyclo[2.2.2]octan-1-yl)methyl)-N-(3-(1-(cyclopropylsulfonyl)-1H-pyrazol-4-yl)phenyl)-3-fluorobicyclo[1.1.1]pentane-1-carboxamide] | 0.043 µM
CC1(c2nc(-c3cccc(N(CC45CCC(c6noc(C(F)F)n6)(CC4)CC5)C(=O)C45CC(F)(C4)C5)c3)no2)CC1 [Example 178, N-((4-(5-(difluoromethyl)-1,2,4-oxadiazol-3-yl)bicyclo[2.2.2]octan-1-yl)methyl)-3-fluoro-N-(3-(5-(1-methylcyclopropyl)-1,2,4-oxadiazol-3-yl)phenyl)bicyclo[1.1.1]pentane-1-carboxamide] | 0.073 µM
COCc1coc(-c2cccc(N(CC34CCC(c5nc(C6CC6)no5)(CC3)CC4)C(=O)C34CC(F)(C3)C4)c2)n1 [Example 85, N-((4-(3-cyclopropyl-1,2,4-oxadiazol-5-yl)bicyclo[2.2.2]octan-1-yl)methyl)-3-fluoro-N-(3-(4-(methoxymethyl)oxazol-2-yl)phenyl)bicyclo[1.1.1]pentane-1-carboxamide] | 0.137 µM
O=C(N(CC12CCC(c3nc(C4CC4)no3)(CC1)CC2)c1cccc(-c2noc(C3CC(F)(F)C3)n2)c1)C12CC(F)(C1)C2 [Example 103, N-((4-(3-cyclopropyl-1,2,4-oxadiazol-5-yl)bicyclo[2.2.2]octan-1-yl)methyl)-N-(3-(5-(3,3-difluorocyclobutyl)-1,2,4-oxadiazol-3-yl)phenyl)-3-fluorobicyclo[1.1.1]pentane-1-carboxamide] | 0.227 µM
O=C(N(CC12CCC(c3noc(C(F)F)n3)(CC1)CC2)c1cccc(-c2nc(C3CC3)no2)c1)C12CC(F)(C1)C2 [Example 117, N-(3-(3-cyclopropyl-1,2,4-oxadiazol-5-yl)phenyl)-N-((4-(5-(difluoromethyl)-1,2,4-oxadiazol-3-yl)bicyclo[2.2.2]octan-1-yl)methyl)-3-fluorobicyclo[1.1.1]pentane-1-carboxamide] | 0.012 µM
O=C(C1CC(F)(F)C1)N(CC12CCC(c3nc(C4CC4)no3)(CC1)CC2)c1cccc(-c2cnc(C3CCOCC3)o2)c1 [Example 36, N-((4-(3-cyclopropyl-1,2,4-oxadiazol-5-yl)bicyclo[2.2.2]octan-1-yl)methyl)-3,3-difluoro-N-(3-(2-(tetrahydro-2H-pyran-4-yl)oxazol-5-yl)phenyl)cyclobutane-1-carboxamide] | 0.497 µM
COc1ccc(C23CCC(CN(C(=O)C4CC(F)(F)C4)c4cccc(-c5nc(C6CC6)no5)c4)(CC2)CO3)cc1 [Example 129, N-(3-(3-Cyclopropyl-1,2,4-oxadiazol-5-yl)phenyl)-3,3-difluoro-N-((1-(4-methoxyphenyl)-2-oxabicyclo[2.2.2]octan-4-yl)methyl)cyclobutane-1-carboxamide] | 1.14 µM
O=C(N(CC12CCC(c3nc(C4CC4)no3)(CC1)CC2)c1cccc(-c2cnn(C(F)F)c2)c1)C12CC(F)(C1)C2 [Example 160, N-((4-(3-cyclopropyl-1,2,4-oxadiazol-5-yl)bicyclo[2.2.2]octan-1-yl)methyl)-N-(3-(1-(difluoromethyl)-1H-pyrazol-4-yl)phenyl)-3-fluorobicyclo[1.1.1]pentane-1-carboxamide] | 0.043 µM
Cn1c(-c2cccc(N(CC34CCC(c5nc(C6CC6)no5)(CC3)CC4)C(=O)C34CC(F)(C3)C4)c2)nnc1C1CC1 [Example 132, N-((4-(3-cyclopropyl-1,2,4-oxadiazol-5-yl)bicyclo[2.2.2]octan-1-yl)methyl)-N-(3-(5-cyclopropyl-4-methyl-4H-1,2,4-triazol-3-yl)phenyl)-3-fluorobicyclo[1.1.1]pentane-1-carboxamide] | 4.41 µM
O=C(N(CC12CCC(c3nc(C4CC4)no3)(CC1)OC2)c1cccc(-c2noc(C3CC3)n2)c1)C12CC(F)(C1)C2 [Example 203] | 0.074 µM
COc1cc(-c2cccc(N(CC34CCC(c5ccc(C(C)(C)C#N)cc5)(CC3)OC4)C(=O)C3CCC3)c2)ccn1 [Example 223, N-((1-(4-(2-cyanopropan-2-yl)phenyl)-2-oxabicyclo[2.2.2]octan-4-yl)methyl)-N-(3-(2-methoxypyridin-4-yl)phenyl)cyclobutanecarboxamide] | 0.313 µM
CC(C)(C)c1nc(-c2cccc(N(CC34CCC(c5nc(C6CC6)no5)(CC3)CC4)C(=O)C34CC(F)(C3)C4)c2)no1 [Example 107, N-(3-(5-(tert-butyl)-1,2,4-oxadiazol-3-yl)phenyl)-N-((4-(3-cyclopropyl-1,2,4-oxadiazol-5-yl)bicyclo[2.2.2]octan-1-yl)methyl)-3-fluorobicyclo[1.1.1]pentane-1-carboxamide] | 0.018 µM
CCOc1ccnc(-c2cccc(N(CC34CCC(c5nc(C6CC6)no5)(CC3)CC4)C(=O)C34CC(F)(C3)C4)c2)c1 [Example 225, N-((4-(3-cyclopropyl-1,2,4-oxadiazol-5-yl)bicyclo[2.2.2]octan-1-yl)methyl)-N-(3-(4-ethoxypyridin-2-yl)phenyl)-3-fluorobicyclo[1.1.1]pentane-1-carboxamide] | 0.241 µM
CC1(c2nc(-c3cccc(N(CC45CCC(c6nc(C7CC7)no6)(CC4)CC5)C(=O)C45CC(F)(C4)C5)c3)no2)COC1 [Example 113, N-((4-(3-cyclopropyl-1,2,4-oxadiazol-5-yl)bicyclo[2.2.2]octan-1-yl)methyl)-3-fluoro-N-(3-(5-(3-methyloxetan-3-yl)-1,2,4-oxadiazol-3-yl)phenyl)bicyclo[1.1.1]pentane-1-carboxamide] | 0.121 µM
CC1(NC(=O)N(CC23CCC(c4nc(C5CC5)no4)(CC2)CC3)c2cccc(-c3nc(C4CC4)no3)c2)CC1 [Example 94, 1-((4-(3-cyclopropyl-1,2,4-oxadiazol-5-yl)bicyclo[2.2.2]octan-1-yl)methyl)-1-(3-(3-cyclopropyl-1,2,4-oxadiazol-5-yl)phenyl)-3-(1-methylcyclopropyl)urea] | 0.265 µM
O=C(N(CC12CCC(c3noc(C4(C(F)(F)F)CC4)n3)(CC1)CC2)c1cccc(-c2nc(C3CC3)no2)c1)C12CC(F)(C1)C2 [Example 118, N-(3-(3-cyclopropyl-1,2,4-oxadiazol-5-yl)phenyl)-3-fluoro-N-((4-(5-(1-(trifluoromethyl)cyclopropyl)-1,2,4-oxadiazol-3-yl)bicyclo[2.2.2]octan-1-yl)methyl) bicyclo[1.1.1]pentane-1-carboxamide] | 0.03 µM
O=C(C1CC(C(F)F)C1)N(CC12CCC(c3nnc(C4CC4)o3)(CC1)CC2)c1cccc(-c2nnc(C3CC3)o2)c1 (stereo not shown) [Example 134, N-((4-(5-cyclopropyl-1,3,4-oxadiazol-2-yl)bicyclo[2.2.2]octan-1-yl)methyl)-N-(3-(5-cyclopropyl-1,3,4-oxadiazol-2-yl)phenyl)-3-(difluoromethyl)cyclobutane-1-carboxamide] | 0.636 µM
